Like-named read-outs stand apart in the source and are kept apart here.
Columns and labels:
[1] = biological target: T1, His-GST-TVMV-hRIPK1(1-324) (Homo sapiens, UniProt Q13546); assay: biochemical; format: binding; conditions: HTRF probe displacement, 1 h at rt; read-out: RIPK1 IC50
T1 construct: The coding region of human RIPK1(1-324) flanked by NdeI site at 5′ end; made in house; host or cells: Spodoptera frugiperda Sf9 insect cells (baculovirus, Bac-to-Bac)
T1 sequence (Q13546 1-324): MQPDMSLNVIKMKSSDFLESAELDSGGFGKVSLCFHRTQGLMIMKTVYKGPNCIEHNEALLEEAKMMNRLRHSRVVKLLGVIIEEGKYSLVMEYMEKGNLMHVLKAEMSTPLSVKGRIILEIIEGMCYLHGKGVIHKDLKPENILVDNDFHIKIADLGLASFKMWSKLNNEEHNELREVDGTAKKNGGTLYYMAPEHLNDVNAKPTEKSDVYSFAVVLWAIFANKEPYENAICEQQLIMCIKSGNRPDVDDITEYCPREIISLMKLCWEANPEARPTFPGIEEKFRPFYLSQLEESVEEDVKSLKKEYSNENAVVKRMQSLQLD

[2] = tested on: MLKL phosphorylation in HT29-L23 human colorectal adenocarcinoma cells; assay: MLKL phosphorylation high-content assay; format: cell-based; conditions: necroptosis induced with TNFα, SMAC mimetic and Z-VAD, 6 h, maximal inhibition defined by Nec1s
[3] = biological target: GST-tagged PIK3Cδ in complex with PIK3R1 (Homo sapiens, UniProt O00329); assay: PI3Kδ HTRF binding assay; conditions: HTRF probe displacement, 1 h at rt; read-out: PIK3CD IC50
[4] = read-out: pMLKL IC50, HT29-L23 cells
[5] = Homo sapiens, read-out: pMLKL IC50, HT29-L23 cells

Chain of GST-tagged PIK3Cδ in complex with PIK3R1 (O00329 whole entry): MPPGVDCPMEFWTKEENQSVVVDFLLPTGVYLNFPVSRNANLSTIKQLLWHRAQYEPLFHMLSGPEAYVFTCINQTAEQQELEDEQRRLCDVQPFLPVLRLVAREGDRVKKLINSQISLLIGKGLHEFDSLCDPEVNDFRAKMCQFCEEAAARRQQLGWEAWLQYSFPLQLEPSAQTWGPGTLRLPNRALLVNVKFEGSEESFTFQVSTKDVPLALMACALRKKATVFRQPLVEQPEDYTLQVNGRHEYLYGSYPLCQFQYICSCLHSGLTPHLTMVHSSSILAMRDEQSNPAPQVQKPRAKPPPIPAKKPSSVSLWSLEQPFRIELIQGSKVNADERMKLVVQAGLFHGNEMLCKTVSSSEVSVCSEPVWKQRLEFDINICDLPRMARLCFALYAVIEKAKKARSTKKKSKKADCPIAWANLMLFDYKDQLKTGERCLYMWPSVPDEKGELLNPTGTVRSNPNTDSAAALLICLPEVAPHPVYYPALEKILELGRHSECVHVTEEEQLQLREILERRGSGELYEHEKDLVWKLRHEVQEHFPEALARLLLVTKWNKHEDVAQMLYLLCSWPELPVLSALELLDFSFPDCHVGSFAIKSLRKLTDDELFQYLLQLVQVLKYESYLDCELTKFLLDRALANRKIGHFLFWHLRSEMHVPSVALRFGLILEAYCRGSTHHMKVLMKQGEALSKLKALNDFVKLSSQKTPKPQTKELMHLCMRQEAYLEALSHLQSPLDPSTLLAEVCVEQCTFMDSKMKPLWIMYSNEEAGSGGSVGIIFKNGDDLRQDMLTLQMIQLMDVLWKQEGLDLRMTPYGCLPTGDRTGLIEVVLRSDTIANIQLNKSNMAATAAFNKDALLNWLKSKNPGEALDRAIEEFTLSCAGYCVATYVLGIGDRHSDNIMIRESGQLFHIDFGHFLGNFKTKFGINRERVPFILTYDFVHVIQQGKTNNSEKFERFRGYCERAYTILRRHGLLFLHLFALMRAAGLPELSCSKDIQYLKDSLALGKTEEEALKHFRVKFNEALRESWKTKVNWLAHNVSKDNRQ
Chain of GST-tagged PIK3Cδ in complex with PIK3R1 (P27986 whole entry partner): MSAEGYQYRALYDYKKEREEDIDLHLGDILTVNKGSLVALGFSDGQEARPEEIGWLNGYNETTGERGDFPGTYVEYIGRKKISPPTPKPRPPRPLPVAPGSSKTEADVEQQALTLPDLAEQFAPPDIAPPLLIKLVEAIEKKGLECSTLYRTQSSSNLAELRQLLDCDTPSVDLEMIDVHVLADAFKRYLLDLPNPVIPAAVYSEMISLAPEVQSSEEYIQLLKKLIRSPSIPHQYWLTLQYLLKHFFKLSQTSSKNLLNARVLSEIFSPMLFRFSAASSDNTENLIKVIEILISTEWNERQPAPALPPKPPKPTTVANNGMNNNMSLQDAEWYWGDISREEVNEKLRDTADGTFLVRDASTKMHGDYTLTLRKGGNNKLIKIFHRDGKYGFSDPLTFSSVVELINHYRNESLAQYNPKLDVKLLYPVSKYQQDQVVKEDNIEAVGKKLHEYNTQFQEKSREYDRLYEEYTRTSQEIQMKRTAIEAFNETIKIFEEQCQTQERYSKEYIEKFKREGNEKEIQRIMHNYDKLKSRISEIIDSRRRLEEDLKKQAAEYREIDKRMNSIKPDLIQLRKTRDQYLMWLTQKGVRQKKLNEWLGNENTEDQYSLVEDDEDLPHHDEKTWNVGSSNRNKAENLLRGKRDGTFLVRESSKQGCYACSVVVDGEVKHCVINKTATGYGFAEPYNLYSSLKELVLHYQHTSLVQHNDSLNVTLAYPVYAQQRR

`Cc1ccc(-c2ccn3nc(N)nc3c2)c(F)c1C(=O)NCC(F)(F)C(O)c1ccc(F)cn1` (stereo not drawn) [Example 270, 3-{2-amino-[1,2,4]triazolo[1,5-a]pyridin-7-yl}-N-[2,2-difluoro-3-(5-fluoropyridin-2-yl)-3-hydroxypropyl]-2-fluoro-6-methylbenzamide] was tested, and the IC50 [1] was 11 nM, the IC50 [2, 4] was 3.1 nM and the IC50 [3] was greater than 15000 nM.

In the case of `Nc1nc2cc(-c3ccc(Cl)c(C(=O)NCCC(O)c4ccc(Cl)cn4)c3F)ccn2n1` (single isomer, unassigned) [Example 82, 3-(2-amino-[1,2,4]triazolo[1,5-a]pyridin-7-yl)-6-chloro-N-(3-(5-chloropyridin-2-yl)-3-hydroxypropyl)-2-fluorobenzamide], the IC50 [1] is reported as 27 nM, the IC50 [2, 5] is reported as 26 nM and the IC50 [3] is reported as 12000 nM.

`Nc1nc2cc(-c3ccc(Cl)c(C(=O)NCC(F)(F)C(O)c4ccc(Cl)c(Cl)n4)c3F)ccn2n1` (single isomer, unassigned) [Example 272, 3-(2-amino-[1,2,4]triazolo[1,5-a]pyridin-7-y)-6-chloro-N-(3-(5,6-dichloropyridin-2-yl)-2,2-difluoro-3-hydroxypropyl)-2-fluorobenzamide] showed an IC50 [1] of 6.8 nM, an IC50 [2, 5] of 11 nM and an IC50 [3] greater than 15000 nM.

Work on `Cc1c(F)cc(-c2ccn3nc(N)nc3c2)cc1C(=O)NCC(F)(F)C(O)c1ccc(F)cc1` (single isomer, unassigned) [Example 231, 5-(2-amino-[1,2,4]triazolo[1,5-a]pyridin-7-yl)-N-(2,2-difluoro-3-(4-fluorophenyl)-3-hydroxypropyl)-3-fluoro-2-methylbenzamide] yielded an IC50 [1] of 2 nM, an IC50 [2, 4] of 1.2 nM and an IC50 [3] greater than 15000 nM.

For `Cc1ccc(-c2ccn3nc(N)nc3c2)c(F)c1C(=O)NCCC(O)c1ccc(F)cc1` (single isomer, unassigned) [Example 51, 3-(2-amino-[1,2,4]triazolo[1,5-a]pyridin-7-yl)-2-fluoro-N-(3-(4-fluorophenyl)-3-hydroxypropyl)-6-methylbenzamide], the IC50 [1] was 3.7 nM, the IC50 [2, 4] was 1.8 nM and the IC50 [3] was greater than 15000 nM.

For `Cc1ccc(-c2ccn3nc(N)nc3c2)c(F)c1C(=O)NCCC(c1ccccc1)C(F)(F)F` (single isomer, unassigned) [Example 13, 3-(2-amino-[1,2,4]triazolo[1,5-a]pyridin-7-yl)-2-fluoro-6-methyl-N-(4,4,4-trifluoro-3-phenylbutyl)benzamide], the IC50 [1] was 0.6 nM, the IC50 [2, 4] was 27 nM and the IC50 [3] was greater than 15000 nM.

With `CCc1ccc(-c2ccn3nc(N)nc3c2)cc1C(=O)NCC[C@H](O)c1ccc(Cl)cc1` [Example 150, (S)-5-(2-amino-[1,2,4]triazolo[1,5-a]pyridin-7-yl)-N-(3-(4-chlorophenyl)-3-hydroxypropyl)-2-ethylbenzamide] the IC50 [1] was 1.8 nM, the IC50 [2, 5] was 5.7 nM and the IC50 [3] was greater than 15000 nM.

`Cc1ccc(-c2ccn3nc(N)nc3c2)c(F)c1C(=O)NC(C)CC(O)c1ccc(F)cc1` (single isomer, unassigned) [Example 36, 3-(2-amino-[1,2,4]triazolo[1,5-a]pyridin-7-yl)-2-fluoro-N-(4-(4-fluorophenyl)-4-hydroxybutan-2-yl)-6-methylbenzamide] was tested, and the IC50 [1] was 4.5 nM, the IC50 [2, 4] was 2.7 nM and the IC50 [3] was greater than 15000 nM.

In the case of `Cc1ccc(-c2ccn3nc(N)nc3c2)c(F)c1C(=O)NCCC(C)(C)c1ccc(Cl)cc1` [Example 15, 3-(2-amino-[1,2,4]triazolo[1,5-a]pyridin-7-yl)-N-(3-(4-chlorophenyl)-3-methylbutyl)-2-fluoro-6-methylbenzamide], the IC50 [1] is reported as 1.5 nM, the IC50 [2, 5] is reported as 1.7 nM and the IC50 [3] is reported as greater than 15000 nM.

With `Nc1nc2cc(-c3ccc(Cl)c(C(=O)NCC(F)(F)[C@@H](F)c4ccc(F)cc4)c3F)ccn2n1` [Example 282, (S)-3-(2-amino-[1,2,4]triazolo[1,5-a]pyridin-7-yl)-6-chloro-2-fluoro-N-(2,2,3-trifluoro-3-(4-fluorophenyl)propyl)benzamide] the IC50 [1] was 2.2 nM, the IC50 [2, 5] was 1.1 nM and the IC50 [3] was greater than 15000 nM.

— patent US11767322B2 (BRISTOL-MYERS SQUIBB COMPANY, priority 2020, dated 2023)
